Data on 30 compounds can be found in patent US8673906B2, “Chromenone derivatives” (AstraZeneca AB, priority 2010, dated 2014).

The structures appear in SMILES notation.

One may read the IC50 as the concentration that gives 50% inhibition.

In the test the target is PI3Kβ (Homo sapiens (Human), UniProt P42338). Briefly: In vitro enzyme inhibition assay (Kinase Glo based enzyme activity assay). The format is biochemical. The settings on record: Test (a), human recombinant enzyme; read-out: PI3Kβ inhibition, IC50. As to the method: (a) In Vitro Enzyme Inhibition Assay
The inhibition of PI3Kβ, PI3Kα, PI3Kγ and PI3Kδ was evaluated in a Kinase Glo based enzyme activity assay using human recombinant enzymes. The assay measures depletion of ATP after incubation with enzyme, PIP2 and ATP plus compound. ATP at the end of the reaction is detected by addition of Kinase Glo reagent, in this the Ultra Glo™ luciferase (Promega) uses the ATP as a substrate to catalyze the mono-oxygenation of luciferin and the generation of light. A direct relationship exists between the luminescence measured with the Kinase-Glo Plus Reagent and the amount of ATP remaining in a completed kinase reaction and luminescence is inversely related to kinase activity. Twelve different compound concentrations were tested and raw data from the inhibition of PI3 Kb, PI3Kα, PI3Kγ and PI3Kδ was plotted versus inhibitor concentration.
Compounds in 100% DMSO were added to assay plates by acoustic dispensing. PI3Kβ was added in a Tris buffer (50 mM Tris pH7.4, 0.05% CHAPS, 2.1 mM DTT, and 10 mM MgCl2) and allowed to preincubate with compound for 20 minutes prior to addition of substrate solution containing PIP2 and ATP. The enzyme reaction was stopped after 80 minutes by the addition of Kinase Glo detection solution. Plates were left for 30 minutes at room temperature then read on a Pherastar Instrument (Luminescence ATP 384 program) setting gain on max well. The final concentration of DMSO, ATP and PIP2 in the assay were, 1%, 80 μM, and 80 μM respectively.
IC50 values were calculated using a log curve fitting to a non-linear regression package, fitting raw data to inhibitor concentration.
(Kinase-Glo measures the ATP left after a reaction by luminescence.)

Sequence of PI3Kβ (P42338 whole entry): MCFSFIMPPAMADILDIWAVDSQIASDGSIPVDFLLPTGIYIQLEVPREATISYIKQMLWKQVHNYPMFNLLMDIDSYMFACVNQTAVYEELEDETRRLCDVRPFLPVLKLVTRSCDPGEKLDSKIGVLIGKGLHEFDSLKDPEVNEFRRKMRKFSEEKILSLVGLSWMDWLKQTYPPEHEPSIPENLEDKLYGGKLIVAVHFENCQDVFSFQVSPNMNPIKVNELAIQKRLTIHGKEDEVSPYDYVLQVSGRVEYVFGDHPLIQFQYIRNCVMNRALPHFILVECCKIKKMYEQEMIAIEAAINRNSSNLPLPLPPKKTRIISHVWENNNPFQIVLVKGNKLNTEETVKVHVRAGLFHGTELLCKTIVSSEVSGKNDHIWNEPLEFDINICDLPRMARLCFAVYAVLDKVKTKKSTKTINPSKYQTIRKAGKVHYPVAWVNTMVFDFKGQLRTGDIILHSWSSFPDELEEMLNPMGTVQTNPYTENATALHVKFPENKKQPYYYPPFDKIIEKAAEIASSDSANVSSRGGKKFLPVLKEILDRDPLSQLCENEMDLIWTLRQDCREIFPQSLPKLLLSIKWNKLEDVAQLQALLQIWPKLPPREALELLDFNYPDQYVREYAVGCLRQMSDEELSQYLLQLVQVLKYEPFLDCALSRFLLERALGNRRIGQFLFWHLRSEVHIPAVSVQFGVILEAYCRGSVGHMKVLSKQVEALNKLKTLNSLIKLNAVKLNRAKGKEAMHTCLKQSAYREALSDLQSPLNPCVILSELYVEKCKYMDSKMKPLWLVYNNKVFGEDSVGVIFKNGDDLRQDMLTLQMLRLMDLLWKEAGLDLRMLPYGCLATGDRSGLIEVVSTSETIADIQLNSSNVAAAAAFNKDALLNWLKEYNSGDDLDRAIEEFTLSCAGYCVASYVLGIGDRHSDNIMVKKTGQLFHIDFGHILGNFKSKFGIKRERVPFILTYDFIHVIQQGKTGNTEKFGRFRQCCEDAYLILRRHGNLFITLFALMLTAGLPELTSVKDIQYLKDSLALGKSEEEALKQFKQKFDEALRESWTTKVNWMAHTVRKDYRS
Sequence of PI3Kβ (P27986 whole entry partner): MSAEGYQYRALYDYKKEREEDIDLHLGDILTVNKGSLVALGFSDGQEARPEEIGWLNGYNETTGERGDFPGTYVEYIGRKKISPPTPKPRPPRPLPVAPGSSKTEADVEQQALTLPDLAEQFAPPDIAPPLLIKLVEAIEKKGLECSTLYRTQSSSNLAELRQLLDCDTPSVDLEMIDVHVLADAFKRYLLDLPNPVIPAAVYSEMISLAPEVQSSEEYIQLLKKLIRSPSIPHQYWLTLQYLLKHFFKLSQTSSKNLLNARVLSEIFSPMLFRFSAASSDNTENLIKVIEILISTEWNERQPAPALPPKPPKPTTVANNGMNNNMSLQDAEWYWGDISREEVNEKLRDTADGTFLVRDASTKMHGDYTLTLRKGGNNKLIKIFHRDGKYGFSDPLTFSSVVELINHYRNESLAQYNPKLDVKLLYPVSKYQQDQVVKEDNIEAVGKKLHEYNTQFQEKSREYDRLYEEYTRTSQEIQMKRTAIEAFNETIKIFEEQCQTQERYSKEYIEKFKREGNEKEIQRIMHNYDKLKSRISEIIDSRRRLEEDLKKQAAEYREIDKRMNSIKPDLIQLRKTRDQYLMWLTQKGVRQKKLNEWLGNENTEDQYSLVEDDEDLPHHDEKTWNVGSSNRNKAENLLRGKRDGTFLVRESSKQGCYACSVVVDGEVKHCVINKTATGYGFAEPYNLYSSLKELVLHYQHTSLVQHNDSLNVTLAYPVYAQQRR

`Cc1cc(F)cc(NC(C)c2cc(C(=O)N(C)C)cc3c(=O)cc(N4CCOCC4)oc23)c1` (stereo not drawn) [Example 3.16, 8-(1-(3-fluoro-5-methylphenylamino)ethyl)-N,N-dimethyl-2-morpholino-4-oxo-4H-chromene-6-carboxamide]: the IC50 came out at 5 nM.

Take `CC(Nc1cccc(C#N)c1)c1cc(C(=O)N(C)C)cc2c(=O)cc(N3CCOCC3)oc12` (stereo not drawn) [Example 3.18, 8-(1-(3-cyanophenylamino)ethyl)-N,N-dimethyl-2-morpholino-4-oxo-4H-chromene-6-carboxamide]: the IC50 came to 10 nM. As to `CC(Nc1cccc(Cl)c1Cl)c1cc(C(=O)N(C)C)cc2c(=O)cc(N3CCOCC3)oc12` (stereo not drawn) [Example 3.19, 8-(1-(2,3-dichlorophenylamino)ethyl)-N,N-dimethyl-2-morpholino-4-oxo-4H-chromene-6-carboxamide], the IC50 was found to be 5 nM. With `C#Cc1cccc(NC(C)c2cc(C(=O)N(C)C)cc3c(=O)cc(N4CCOCC4)oc23)c1` (stereo not drawn) [Example 3.20, 8-(1-(3-ethynylphenylamino)ethyl)-N,N-dimethyl-2-morpholino-4-oxo-4H-chromene-6-carboxamide], the IC50 was determined as 5 nM. In the case of `Cc1ccc(C#N)cc1NC(C)c1cc(C(=O)N(C)C)cc2c(=O)cc(N3CCOCC3)oc12` (stereo not drawn) [Example 3.21, 8-(1-(5-cyano-2-methylphenylamino)ethyl)-N,N-dimethyl-2-morpholino-4-oxo-4H-chromene-6-carboxamide], the IC50 came out at 114 nM. Take `Cc1ccc(F)cc1NC(C)c1cc(C(=O)N(C)C)cc2c(=O)cc(N3CCOCC3)oc12` (stereo not drawn) [Example 3.22, 8-(1-(5-fluoro-2-methylphenylamino)ethyl)-N,N-dimethyl-2-morpholino-4-oxo-4H-chromene-6-carboxamide]: the IC50 is 4 nM. Regarding `Cc1cc(C#N)cc(NC(C)c2cc(C(=O)N(C)C)cc3c(=O)cc(N4CCOCC4)oc23)c1` (stereo not drawn) [Example 3.23, 8-(1-(3-cyano-5-methylphenylamino)ethyl)-N,N-dimethyl-2-morpholino-4-oxo-4H-chromene-6-carboxamide], the IC50 amounted to 13 nM. As for `COc1ccc(F)cc1NC(C)c1cc(C(=O)N(C)C)cc2c(=O)cc(N3CCOCC3)oc12` (stereo not drawn) [Example 3.24, 8-(1-(5-fluoro-2-methoxyphenylamino)ethyl)-N,N-dimethyl-2-morpholino-4-oxo-4H-chromene-6-carboxamide], the figure is 6 nM; as for `COc1ccc(C#N)cc1NC(C)c1cc(C(=O)N(C)C)cc2c(=O)cc(N3CCOCC3)oc12` (stereo not drawn) [Example 3.25, 8-(1-(5-cyano-2-methoxyphenylamino)ethyl)-N,N-dimethyl-2-morpholino-4-oxo-4H-chromene-6-carboxamide], 212 nM. Consider `CC(Nc1cc(F)ccc1Cl)c1cc(C(=O)N(C)C)cc2c(=O)cc(N3CCOCC3)oc12` (stereo not drawn) [Example 3.26, 8-(1-(2-chloro-5-fluorophenylamino)ethyl)-N,N-dimethyl-2-morpholino-4-oxo-4H-chromene-6-carboxamide], for which the IC50 was determined as 4 nM.

Take `CC(Nc1c(F)ccc(F)c1F)c1cc(C(=O)N(C)C)cc2c(=O)cc(N3CCOCC3)oc12` (stereo not drawn) [Example 3.27, N,N-dimethyl-2-morpholino-4-oxo-8-(1-(2,3,6-trifluorophenylamino)ethyl)-4H-chromene-6-carboxamide]: the IC50 amounted to 9 nM. Take `Cc1ccc(Cl)cc1NC(C)c1cc(C(=O)N(C)C)cc2c(=O)cc(N3CCOCC3)oc12` (stereo not drawn) [Example 3.28, 8-(1-(5-chloro-2-methylphenylamino)ethyl)-N,N-dimethyl-2-morpholino-4-oxo-4H-chromene-6-carboxamide]: the IC50 amounted to 4 nM. As for `Cc1c(C#N)cccc1NC(C)c1cc(C(=O)N(C)C)cc2c(=O)cc(N3CCOCC3)oc12` (stereo not drawn) [Example 3.29, 8-(1-(3-cyano-2-methylphenylamino)ethyl)-N,N-dimethyl-2-morpholino-4-oxo-4H-chromene-6-carboxamide], the figure is 5 nM; as for `COc1cc(F)cc(NC(C)c2cc(C(=O)N(C)C)cc3c(=O)cc(N4CCOCC4)oc23)c1` (stereo not drawn) [Example 3.30, 8-(1-(3-fluoro-5-methoxyphenylamino)ethyl)-N,N-dimethyl-2-morpholino-4-oxo-4H-chromene-6-carboxamide], 4 nM. Regarding `COc1c(F)cccc1NC(C)c1cc(C(=O)N(C)C)cc2c(=O)cc(N3CCOCC3)oc12` (stereo not drawn) [Example 3.31, 8-(1-(3-fluoro-2-methoxyphenylamino)ethyl)-N,N-dimethyl-2-morpholino-4-oxo-4H-chromene-6-carboxamide], the IC50 stood at 6 nM. For the compound `CC(Nc1c(F)ccc(Cl)c1F)c1cc(C(=O)N(C)C)cc2c(=O)cc(N3CCOCC3)oc12` (stereo not drawn) [Example 3.32, 8-(1-(3-chloro-2,6-difluorophenylamino)ethyl)-N,N-dimethyl-2-morpholino-4-oxo-4H-chromene-6-carboxamide], the IC50 was found to be 8 nM. In the case of `CC(Nc1cc(Cl)cc(Cl)c1)c1cc(C(=O)N(C)C)cc2c(=O)cc(N3CCOCC3)oc12` (stereo not drawn) [Example 3.33, 8-(1-(3,5-dichlorophenylamino)ethyl)-N,N-dimethyl-2-morpholino-4-oxo-4H-chromene-6-carboxamide], the IC50 came to 5 nM. For `C#Cc1cc(F)cc(NC(C)c2cc(C(=O)N(C)C)cc3c(=O)cc(N4CCOCC4)oc23)c1` (stereo not drawn) [Example 3.34, 8-(1-(3-ethynyl-5-fluorophenylamino)ethyl)-N,N-dimethyl-2-morpholino-4-oxo-4H-chromene-6-carboxamide], the IC50 is 4 nM. Regarding `CC(Nc1cc(F)ccc1C#N)c1cc(C(=O)N(C)C)cc2c(=O)cc(N3CCOCC3)oc12` (stereo not drawn) [Example 3.35, 8-(1-(2-cyano-5-fluorophenylamino)ethyl)-N,N-dimethyl-2-morpholino-4-oxo-4H-chromene-6-carboxamide], the IC50 came to 31 nM.

Regarding `CC(Nc1cccc(F)c1C#N)c1cc(C(=O)N(C)C)cc2c(=O)cc(N3CCOCC3)oc12` (stereo not drawn) [Example 3.36, 8-(1-(2-cyano-3-fluorophenylamino)ethyl)-N,N-dimethyl-2-morpholino-4-oxo-4H-chromene-6-carboxamide], the IC50 came to 24 nM. On to `CC(c1cc(C(=O)N(C)C)cc2c(=O)cc(N3CCOCC3)oc12)N(C)c1cc(F)cc(Cl)c1` (stereo not drawn) [Example 3.37, 8-(1-((3-chloro-5-fluorophenyl)(methyl)amino)ethyl)-N,N-dimethyl-2-morpholino-4-oxo-4H-chromene-6-carboxamide], for which the half-inhibitory concentration (IC50) was 12 nM.

On to `CC(c1cc(C(=O)N(C)C)cc2c(=O)cc(N3CCOCC3)oc12)N(C)c1cc(F)c(F)c(F)c1` (stereo not drawn) [Example 3.38, N,N-dimethyl-8-(1-(methyl(3,4,5-trifluorophenyl)amino)ethyl)-2-morpholino-4-oxo-4H-chromene-6-carboxamide], for which the IC50 turned out to be 17 nM. In the case of `CC(c1cc(C(=O)N(C)C)cc2c(=O)cc(N3CCOCC3)oc12)N(C)c1cc(F)cc(F)c1F` (stereo not drawn) [Example 3.39, N,N-dimethyl-8-(1-(methyl(2,3,5-trifluorophenyl)amino)ethyl)-2-morpholino-4-oxo-4H-chromene-6-carboxamide], the IC50 was 21 nM.

On to `CC(c1cc(C(=O)N(C)C)cc2c(=O)cc(N3CCOCC3)oc12)N(C)c1ccccc1` (stereo not drawn) [Example 3.40, N,N-dimethyl-8-(1-(methyl(phenyl)amino)ethyl)-2-morpholino-4-oxo-4H-chromene-6-carboxamide], for which the IC50 is 43 nM. `C#Cc1cc(F)cc(N(C)C(C)c2cc(C(=O)N(C)C)cc3c(=O)cc(N4CCOCC4)oc23)c1` (stereo not drawn) [Example 3.41, 8-(1-((3-ethynyl-5-fluorophenyl)(methyl)amino)ethyl)-N,N-dimethyl-2-morpholino-4-oxo-4H-chromene-6-carboxamide]: the IC50 turned out to be 14 nM. For the compound `CCN(CC)C(=O)c1cc(C(C)Nc2cc(F)cc(F)c2)c2oc(N3CCOCC3)cc(=O)c2c1` (stereo not drawn) [Example 4.01, 8-(1-(3,5-difluorophenylamino)ethyl)-N,N-diethyl-2-morpholino-4-oxo-4H-chromene-6-carboxamide], the IC50 was 4 nM.

On to `CC(Nc1cc(F)cc(F)c1)c1cc(C(=O)N2CCN(C)CC2)cc2c(=O)cc(N3CCOCC3)oc12` (stereo not drawn) [Example 4.03, 8-(1-(3,5-difluorophenylamino)ethyl)-6-(4-methylpiperazine-1-carbonyl)-2-morpholino-4H-chromen-4-one], for which the IC50 was found to be 4 nM.

In the case of `CC(Nc1cc(F)cc(F)c1)c1cc(C(=O)N2CCNCC2)cc2c(=O)cc(N3CCOCC3)oc12` (stereo not drawn) [Example 4.04, 8-(1-(3,5-difluorophenylamino)ethyl)-2-morpholino-6-(piperazine-1-carbonyl)-4H-chromen-4-one], the IC50 was 4 nM. For the compound `CC(Nc1cc(F)cc(F)c1)c1cc(C(=O)N2CCSCC2)cc2c(=O)cc(N3CCOCC3)oc12` (stereo not drawn) [Example 4.05, 8-(1-(3,5-difluorophenylamino)ethyl)-2-morpholino-6-(thiomorpholine-4-carbonyl)-4H-chromen-4-one], the IC50 stood at 8 nM. For `CC(Nc1cc(F)cc(F)c1)c1cc(C(=O)N2CCCCCC2)cc2c(=O)cc(N3CCOCC3)oc12` (stereo not drawn) [Example 4.06, 6-(azepane-1-carbonyl)-8-(1-(3,5-difluorophenylamino)ethyl)-2-morpholino-4H-chromen-4-one], the IC50 is 4 nM.
